The results in this text go back to publication PMC10342707, “Identification of Regulatory Molecular “Hot Spots” for LH/PLOD Collagen Glycosyltransferase Activity” (International Journal of Molecular Sciences, 2023).

Usually IC50 stands for the concentration at which inhibition is half-maximal.

For assay [1], the target named is T1, LH3/PLOD3 (Homo sapiens, UniProt O60568).
T1 construct: 6xHis-tag and TEV site; secreted from HEK293-F cells
T1 sequence (O60568 25-738): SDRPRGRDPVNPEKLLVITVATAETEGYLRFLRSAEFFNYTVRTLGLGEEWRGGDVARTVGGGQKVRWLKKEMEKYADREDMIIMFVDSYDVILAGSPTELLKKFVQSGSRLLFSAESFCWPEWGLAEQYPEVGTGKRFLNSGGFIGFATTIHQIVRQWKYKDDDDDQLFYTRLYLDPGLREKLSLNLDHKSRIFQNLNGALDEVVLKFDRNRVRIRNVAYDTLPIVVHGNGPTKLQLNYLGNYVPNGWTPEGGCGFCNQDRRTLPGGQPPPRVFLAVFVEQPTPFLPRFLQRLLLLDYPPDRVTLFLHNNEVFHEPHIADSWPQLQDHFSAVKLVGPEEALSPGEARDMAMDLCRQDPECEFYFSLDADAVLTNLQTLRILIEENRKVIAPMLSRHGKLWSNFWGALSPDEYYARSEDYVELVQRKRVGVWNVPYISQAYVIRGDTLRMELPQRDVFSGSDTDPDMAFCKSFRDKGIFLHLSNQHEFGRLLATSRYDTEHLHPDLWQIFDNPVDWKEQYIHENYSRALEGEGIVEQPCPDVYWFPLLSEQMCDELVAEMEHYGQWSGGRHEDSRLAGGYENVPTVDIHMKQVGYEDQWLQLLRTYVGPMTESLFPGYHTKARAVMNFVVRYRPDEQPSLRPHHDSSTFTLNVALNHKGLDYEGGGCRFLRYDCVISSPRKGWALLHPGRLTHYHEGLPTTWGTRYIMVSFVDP
The assay can be described thus: luminescence-based Glc-T competition assay. Format: biochemical. As to conditions: read-out: UDP-Glc (IC50). The source says: luminescence-based Glc-T competition assay on LH3/PLOD3

In assay [2] the target is T1, LH3/PLOD3. The assay can be described thus: differential scanning fluorimetry. Format: binding. As to conditions: 50 mM MnCl2, 5 mM ligand, 25 mM HEPES, 500 mM NaCl, pH 8. (In general: Differential scanning fluorimetry follows unfolding on heating by fluorescence.)

In the case of `O=C(O)[C@H]1O[C@H](OP(=O)(O)OP(=O)(O)OC[C@H]2O[C@@H](n3ccc(=O)[nH]c3=O)[C@H](O)[C@@H]2O)[C@H](O)[C@@H](O)[C@@H]1O` [UDP-GlcA], in assay [1], the IC50 is greater than 10 mM. In assay [2], the thermal shift is 1–1.5 °C. Take `O=c1ccn([C@@H]2O[C@H](COP(=O)(O)OP(=O)(O)O[C@H]3OC[C@@H](O)[C@H](O)[C@H]3O)[C@@H](O)[C@H]2O)c(=O)[nH]1` [UDP-Xyl]: the IC50 in assay [1] turned out to be 3.17 ± 0.211 mM.

In the case of `O=c1ccn([C@@H]2O[C@H](COP(=O)(O)OP(=O)(O)O)[C@@H](O)[C@H]2O)c(=O)[nH]1` [UDP], in assay [2], the thermal shift is 3–3.5 °C.
